Assays:
[1] = biological target: T1, KIF2C (Homo sapiens, UniProt Q99661); assay: In vitro validation: KIF2C kinesin activity, malachite green-based phosphate colorimetric assay; type: biochemical; conditions: concentration that inhibits 50% of KIF2C activity
T1 construct: KIF2C (216-598 a.a.); 6xHis (C); made in house; host or cells: E. coli BL21 (DE3), pET-28a
Protocol: (§1) The in vitro validation was performed by measuring KIF2C kinesin activity using malachite green-based phosphate colorimetric assay (BioVision). […] The microtubules from porcine brain tubulin (Cytoskeleton) or purified from HEK293 cells in Free-style medium (293Fs) were dissolved in the BRB80 buffer (80 mM PIPES pH 6.8, 1 mM EGTA, 1 mM MgCl2, 1 mM GTP, 1 mM DTT, and 10% DMSO) at 37° C. for 2 hr. Phosphates released from kinesin-mediated ATP hydrolysis was measured by adding 30 μL of the phosphate colorimetric reagent (BioVision), incubated for 10 min, and then measured with absorbance at 650 nm. […] The cell validation was performed by measuring cytotoxicity in MDA-MB-231 cells. The cells were cultured in a 96-well plate at a confluence of 2000 cells/well with indicates compounds for specific days. When the time was up, the culture medium in the plate was aspirated and replaced with a prepared CellTiter-Glo reagent (Promega)/DMEM mixture (1:1 mix of CellTiter-Glo reagent and serum-supplemented DMEM). After incubation for 10 min, the luminescence was measured with an ELISA plate reader to determine the cell viability.
In vitro kinesin activity was measured using malachite green-based phosphate colorimetric assay (BioVision). […] The microtubules from porcine brain tubulin (Cytoskeleton) or purified from HEK293 cells in Free-style medium (293Fs) were dissolved in the BRB80 buffer (80 mM PIPES pH 6.8, 1 mM EGTA, 1 mM MgCl2, 1 mM GTP, 1 mM DTT, and 10% DMSO) at 37° C. for 2 hr. Phosphates released from kinesin-mediated ATP hydrolysis was measured by adding 30 μL of the phosphate colorimetric reagent (BioVision), incubated for 10 min, and then measured with absorbance at 650 nm.
Constructs of sN+M regions of KIF2C (216-598 a.a.), KIF2A (181-562 a.a.) and KIF2B (171-553 a.a.) with C-terminal 6×His tag were subcloned into pET-28a vector and expressed in BL21 (DE3) E. coli cells (Novartis) cultured in Luria-Bertani medium supplemented with 50 ug/mL kanamycin at 37° C. After induction with 0.8 mM IPTG for 18 hr at 20° C., the cells were pelleted by centrifugation at 6000 rpm for 30 min at 10° C. The collected pellets were resuspended in 30 mL of buffer A (20 mM Tris-HCl pH 7.5, 500 mM NaCl, 10 mM imidazole, 1% CHAPS, and 1 mM PMSF) and next subjected to a high-pressure homogenizer (EmulsiFlex-C3) for cell lysis. After removing the cell debris by centrifugation at 13000 rpm for 30 min at 10° C., the recombinant Kinesin-13 in the supernatant was purified using nickel affinity chromatography. Firstly, the supernatant was applied to the Ni-NTA column (GE Healthcare) pre-equilibrated with buffer A. Secondly, the column was washed with 10× column volumes of buffer A to remove the unwanted proteins. The washed column was then eluted with 10× column volumes of buffer containing increasing concentrations of imidazole (40, 100, 300, 1000 mM), and the majority of the recombinant Kinesin-13 protein was eventually obtained in a fraction of 300 mM imidazole. The fractions containing the recombinant Kinesin-13 were subsequently concentrated in the buffer B (20 mM Tris-HCl pH 7.5, 10 mM imidazole, 50 mM NaCl, 2 mM DTT) using an Amicon® Ultra filter (Millipore) and subjected to cation exchange column (Capto S, GE Healthcare) for further purification. The recombinant Kinesin-13 was then eluted in elution buffer (20 mM Tris-HCl pH 7.5 and 2 mM DTT) containing 400 mM of NaCl and stored at −80° C. for long-term storage.

[2] = tested on: MDA-MB-231 cells; assay: Cell validation: cytotoxicity in MDA-MB-231 cells (CellTiter-Glo); type: cell-based; conditions: cytotoxicity in MDA-MB-231 cells; for IC50: Homo sapiens
Protocol: as §1
The cancer cells were cultured in a 96-well plate at a confluence of 1000-2000 cells/well with indicated drugs for specific days. When the time was up, the culture medium in the plate was aspirated and replaced with a prepared CellTiter-Glo reagent/DMEM mixture (1:1 mix of CellTiter-Glo reagent and serum-supplemented DMEM). After incubation for 10 min, the luminescence (proportional to the number of living cells) was measured with an ELISA plate reader to determine the cell viability.

T1 sequence (Q99661 216-598): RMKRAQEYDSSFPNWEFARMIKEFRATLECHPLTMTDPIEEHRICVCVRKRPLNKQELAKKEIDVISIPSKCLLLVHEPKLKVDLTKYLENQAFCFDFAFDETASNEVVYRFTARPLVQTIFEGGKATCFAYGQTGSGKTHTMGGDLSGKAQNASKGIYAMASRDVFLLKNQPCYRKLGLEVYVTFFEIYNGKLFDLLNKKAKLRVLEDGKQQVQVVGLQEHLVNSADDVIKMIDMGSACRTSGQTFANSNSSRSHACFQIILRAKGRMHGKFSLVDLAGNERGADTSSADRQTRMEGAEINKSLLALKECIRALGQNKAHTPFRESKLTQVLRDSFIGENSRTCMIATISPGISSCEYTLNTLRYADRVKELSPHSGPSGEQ

SMILES	EC50 [1]	Cell validation (IC50) [2]	IC50 [2]
C=CCOC(=O)C1=C(C)N=c2s/c(=C\c3ccc(OCC(=O)N4CCN(C)CC4)cc3)c(=O)n2C1c1ccc(Cl)cc1 (centres unmarked) [30S0 (96), allyl (Z)-5-(4-chlorophenyl)-7-methyl-2-(4-(2-(4-methylpiperazin-1-yl)-2-oxoethoxy)benzylidene)-3-oxo-2,3-dihydro-5H-thiazolo[3,2-a]pyrimidine-6-carboxylate]	> 100 µM	+ +	–
CC1=C(C(=O)OC(C)C)C(c2ccc(F)cc2)n2c(s/c(=C\c3ccc(OCC(=O)N4CCN(C)CC4)cc3)c2=O)=N1 (centres unmarked) [32S0 (36), isopropyl (Z)-5-(4-fluorophenyl)-7-methyl-2-(4-(2-(4-methylpiperazin-1-yl)-2-oxoethoxy)benzylidene)-3-oxo-2,3-dihydro-5H-thiazolo[3,2-a]pyrimidine-6-carboxylate]	> 100 µM	+ +	–
CC1=C(C(=O)OC(C)C)C(c2ccc(Cl)cc2)n2c(s/c(=C\c3ccc4c(c3)OCO4)c2=O)=N1 (centres unmarked) [34S0 (24), isopropyl (Z)-2-(benzo[d][1,3]dioxol-5-ylmethylene)-5-(4-chlorophenyl)-7-methyl-3-oxo-2,3-dihydro-5H-thiazolo[3,2-a]pyrimidine-6-carboxylate]	> 100 µM	–	> 50 µM
CC1=C(C(=O)OC(C)C)C(c2ccc(Cl)cc2)n2c(s/c(=C\c3ccc(OCCCO)cc3)c2=O)=N1 (centres unmarked) [39S0 (118), isopropyl (Z)-5-(4-chlorophenyl)-2-(4-(3-hydroxypropoxy)benzylidene)-7-methyl-3-oxo-2,3-dihydro-5H-thiazolo[3,2-a]pyrimidine-6-carboxylate]	> 100 µM	–	> 50 µM
COc1ccc(C2C(C(=O)OC(C)C)=C(C)N=c3s/c(=C\c4ccc(OCC(=O)N5CCN(C)CC5)cc4)c(=O)n32)cc1 (centres unmarked) [42S0 (61), isopropyl (Z)-5-(4-methoxyphenyl)-7-methyl-2-(4-(2-(4-methylpiperazin-1-yl)-2-oxoethoxy)benzylidene)-3-oxo-2,3-dihydro-5H-thiazolo[3,2-a]pyrimidine-6-carboxylate]	> 100 µM	–	20 to 50 µM
CCOC(=O)C1=C(C)N=c2s/c(=C\c3ccc(OCC(=O)OC)cc3)c(=O)n2[C@@H]1c1ccc(Cl)cc1 [44S0 (128)]	> 100 µM	–	> 50 µM
CCOC(=O)C1=C(C)N=c2s/c(=C\c3ccc(OCC(=O)OC)cc3)c(=O)n2[C@H]1c1ccc(Cl)cc1 [45S0 (129)]	> 100 µM	–	> 50 µM
COC(=O)COc1ccc(/C=c2\sc3n(c2=O)C(c2ccc(Cl)cc2)C(C(=O)OC(C)C)=C(C)N=3)cc1 (centres unmarked) [46S0 (25), isopropyl (Z)-5-(4-chlorophenyl)-2-(4-(2-methoxy-2-oxoethoxy)benzylidene)-7-methyl-3-oxo-2,3-dihydro-5H-thiazolo[3,2-a]pyrimidine-6-carboxylate]	> 100 µM	–	> 50 µM
CC1=C(C(=O)OC(C)C)C(c2ccc(Cl)cc2)n2c(s/c(=C\c3ccc(OC(C)(C)C(=O)O)cc3)c2=O)=N1 (centres unmarked) [47S0 (107), (Z)-2-(4-((5-(4-chlorophenyl)-6-(isopropoxycarbonyl)-7-methyl-3-oxo-5H-thiazolo[3,2-a]pyrimidin-2(3H)-ylidene)methyl)phenoxy)-2-methylpropanoic acid]	> 100 µM	–	> 50 µM
CCOC(=O)C1=C(C)N=c2s/c(=C\c3ccc(OCC(=O)N4CCN(C)CC4)cc3)c(=O)n2C1c1ccc(Cl)cc1 (centres unmarked) [49S0 (94)]	50 to 100 µM	+ +	–

Now from value to compound, other results behind:

EC50 [1]	SMILES	Cell validation (IC50) [2]	IC50 [2]
> 100 µM	CC1=C(C(=O)OC(C)C)C(c2ccc(Cl)cc2)n2c(s/c(=C\c3ccc(OCC(=O)N4CCC(O)CC4)cc3)c2=O)=N1 (centres unmarked) [31S0 (20), isopropyl (Z)-5-(4-chlorophenyl)-2-(4-(2-(4-hydroxypiperidin-1-yl)-2-oxoethoxy)benzylidene)-7-methyl-3-oxo-2,3-dihydro-5H-thiazolo[3,2-a]pyrimidine-6-carboxylate]	–	> 50 µM
< 20 µM	CC1=C(C(=O)OC(C)C)C(c2ccc(Cl)cc2)n2c(s/c(=C\c3ccc(OCc4nn[nH]n4)cc3)c2=O)=N1 (centres unmarked) [33S0 (115), isopropyl (Z)-2-(4-((2H-tetrazol-5-yl)methoxy)benzylidene)-5-(4-chlorophenyl)-7-methyl-3-oxo-2,3-dihydro-5H-thiazolo[3,2-a]pyrimidine-6-carboxylate]	–	> 50 µM
> 100 µM	CCOC(=O)C1=C(C)N=c2s/c(=C\c3ccc(OCC(=O)OC)cc3)c(=O)n2C1c1ccc(Cl)cc1 (centres unmarked) [35S0 (110), ethyl (Z)-5-(4-chlorophenyl)-2-(4-(2-methoxy-2-oxoethoxy)benzylidene)-7-methyl-3-oxo-2,3-dihydro-5H-thiazolo[3,2-a]pyrimidine-6-carboxylate]	–	20 to 50 µM
> 100 µM	C#CCOc1ccc(/C=c2\sc3n(c2=O)C(c2ccc(Cl)cc2)C(C(=O)OC(C)C)=C(C)N=3)cc1 (centres unmarked) [36S0 (116), isopropyl (Z)-5-(4-chlorophenyl)-7-methyl-3-oxo-2-(4-(prop-2-yn-1-yloxy)benzylidene)-2,3-dihydro-5H-thiazolo[3,2-a]pyrimidine-6-carboxylate]	–	> 50 µM
> 100 µM	CC1=C(C(=O)OC(C)C)C(c2ccc(Cl)cc2)n2c(s/c(=C\c3ccc(OCc4cnn[nH]4)cc3)c2=O)=N1 (centres unmarked) [37S0 (120), isopropyl (Z)-2-(4-((1H-1,2,3-triazol-5-yl)methoxy)benzylidene)-5-(4-chlorophenyl)-7-methyl-3-oxo-2,3-dihydro-5H-thiazolo[3,2-a]pyrimidine-6-carboxylate]	–	> 50 µM
> 100 µM	CC1=C(C(=O)OC(C)C)C(c2ccc(Cl)cc2)n2c(s/c(=C\c3ccc(OCC#N)cc3)c2=O)=N1 (centres unmarked) [38S0 (117), isopropyl (Z)-5-(4-chlorophenyl)-2-(4-(cyanomethoxy)benzylidene)-7-methyl-3-oxo-2,3-dihydro-5H-thiazolo[3,2-a]pyrimidine-6-carboxylate]	–	> 50 µM
< 20 µM	CC1=C(C(=O)OC(C)C)C(c2ccc(Br)cc2)n2c(s/c(=C\c3ccc(OCC(=O)O)cc3)c2=O)=N1 (centres unmarked) [40S0 (40), (4-(((2Z)-5-(4-bromophenyl)-7-methyl-3-oxo-6-((propan-2-yloxy)carbonyl)-5H-[1,3]thiazolo[3,2-a]pyrimidin-2(3H)-ylidene)methyl)phenoxy)acetic acid]	–	> 50 µM
< 50 µM	COc1ccc(C2C(C(=O)OC(C)C)=C(C)N=c3s/c(=C\c4ccc(OCC(=O)O)cc4)c(=O)n32)cc1 (centres unmarked) [41S0 (60), (Z)-2-(4-((6-(isopropoxycarbonyl)-5-(4-methoxyphenyl)-7-methyl-3-oxo-5H-thiazolo[3,2-a]pyrimidin-2(3H)-ylidene)methyl)phenoxy)acetic acid]	–	> 50 µM
50 to 100 µM	COc1ccc(C2C(C(=O)OC(C)C)=C(C)N=c3s/c(=C\c4ccc(OCC(=O)N5CCC(N6CCN(C)CC6)CC5)cc4)c(=O)n32)cc1 (centres unmarked) [43S0 (62), isopropan-2-yl (2Z)-5-(4-chlorophenyl)-7-methyl-2-(4-(2-(4-(4-methylpiperazin-1-yl)piperidin-1-yl)-2-oxoethoxy)benzylidene)-3-oxo-2,3-dihydro-5H-[1,3]thiazolo[3,2-a]pyrimidine-6-carboxylate]	+ + + +	–

Reference: patent publication US20250129101A1, “Compound, Pharmaceutical Composition Comprising the Same and Method for Treating Cancer Using the Same” (NATIONAL TSING HUA UNIVERSITY, priority 2023, published 2025)
